This is an account of results in article PMC9007350, “Aurintricarboxylic acid is a canonical disruptor of the TAZ-TEAD transcriptional complex” (PLoS ONE, 2022).

Structures are written as SMILES. pIC50, pKd: −log10 of the molar value.

Data set [1] deals with T1, TAZ-TEAD complex (full-length His-TAZ and FLAG-TEAD4) (Homo sapiens, UniProt Q15561).
T1 construct: human TEAD4 (1–434) (UniProt—Q15561); strep (N, cleaved yes); made in house; host or cells: Escherichia coli BL21(DE3)pLysS
Put plainly: TAZ-TEAD AlphaLISA assay. To be noted: 10 nM TAZ, 15 nM TEAD4. The data set is classed as binding. From the text: The cDNAs of human TEAD4 (1–434) (UniProt—Q15561) and TAZ (UniProt—Q9GZV5) were codon-optimized according to a proprietary algorithm developed by DAPCEL, Inc, synthesized, and inserted into the pET-3a vector between restriction sites NdeI and BamHI (GenScript). The final construct contained a N-terminal strep-TEV-FLAG tag for TEAD4, a 6x His tag at the N-terminus and a strep tag at the C-terminus of TAZ (GenScript).
Full-length TAZ and TEAD proteins were used in this assay. The codon-optimized cDNAs yielded sufficient protein amounts to carry out the high-throughput screen (S1A Fig).
Purified full-length His-TAZ and FLAG-TEAD4 proteins were mixed with nickel chelate AlphaLISA Acceptor Beads and anti-FLAG Alpha Donor Beads (PerkinElmer) in alpha assay buffer (10mM Tris pH 8.0, 150mM NaCl, 0.1% BSA, 0.01% Tween 20, 10 mM DTT). To determine the optimum protein concentration that produced the highest total signal intensity, His-TAZ was used at a concentration range of 0 nM to 20 nM and FLAG-TEAD4 at 0.1 nM to 1000 nM. The maximal signal occurred at 10 nM TAZ and 15 nM TEAD4 (S1B Fig). Then, compounds from the library plates were added at a final concentration of 10 μM. The mixtures were incubated in the dark for 2h at room temperature and emission at 615 nm was measured using the alpha-compatible EnSpire (PerkinElmer) and Synergy Neo2 (BioTek) multimode plate readers. […]

The test system of data set [2] is NIH3T3 cells expressing NRAS G12V. Put plainly: Soft agar colony growth assay, NRAS G12V. The data set is classed as cell-based. The method, then:
(§1) Soft agar colony growth assay was performed as previously described. The colonies were counted using Image-Pro Plus 7.0 software (Media Cybernetics). ATA cytotoxicity was assessed using the CyQUANT LDH Cytotoxicity Assay Kit (ThermoFisher) and was performed as per the manufacturer’s protocol.

For the next data set, the target named is T2, TAZ (Homo sapiens, UniProt Q9GZV5).
T2 construct: ThermoFluor assays measuring the melting temperatures (Tm) of full-length TAZ or TEAD in the presence of ATA; strep (C); made in house; host or cells: Escherichia coli BL21(DE3)pLysS
T2 sequence (Q9GZV5 whole entry): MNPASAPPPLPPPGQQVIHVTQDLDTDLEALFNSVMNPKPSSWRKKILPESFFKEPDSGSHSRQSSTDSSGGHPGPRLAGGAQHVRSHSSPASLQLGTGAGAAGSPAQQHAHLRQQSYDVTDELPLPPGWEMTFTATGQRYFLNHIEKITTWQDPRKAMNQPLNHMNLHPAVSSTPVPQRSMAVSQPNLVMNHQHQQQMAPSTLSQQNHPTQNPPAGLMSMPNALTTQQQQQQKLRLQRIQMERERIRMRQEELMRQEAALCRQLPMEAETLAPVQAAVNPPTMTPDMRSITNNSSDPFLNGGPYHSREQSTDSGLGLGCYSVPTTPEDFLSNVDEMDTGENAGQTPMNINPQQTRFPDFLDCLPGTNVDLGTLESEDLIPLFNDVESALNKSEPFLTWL
Put plainly: ThermoFluor assay, TAZ. Type of data set: binding. To be noted: full-length TAZ, protein 5 μM. As for the experimental part: To assess changes in protein stability, a dye-based thermal melting assay (ThermoFluor) was used. Purified protein (TAZ or TEAD4), ATA, and Protein Thermal Shift dye (ThermoFisher) were mixed in 96-well plates. The final concentration of the protein was 5 μM. The melting temperature was measured using LightCycler 480 (Roche). Each experiment was repeated at least twice.
Background: In DSF a fluorescence change marks the thermal transition of the protein.

Data set [3] concerns TC/TEAD transcriptional activity in HEK293 cells expressing TAZ-CAMTA1. Put plainly: TC/TEAD dual luciferase reporter assay. The data set is classed as cell-based. To be noted: ATA 10 μM, 48 h. As for the experimental part:
NIH3T3 and HEK293 cells were obtained from the American Type Tissue Collection (ATCC, Manassas, VA) and cultured in DMEM containing 10% fetal bovine serum and penicillin/streptomycin. A TEAD dual luciferase reporter assay was performed as previously described. Cells were treated with vehicle control or ATA (10 μM) for 48 h before measuring the luciferase activity or processing the samples for RNA extraction. Each experiment was repeated at least 2–3 times.

Data set [4] addresses T3, YAP-TEAD complex (human YAP (61-100) probe, human TEAD4 (217-434)) (Homo sapiens, UniProt Q15561).
T3 construct: made in house
Put plainly: YAP-TEAD fluorescence polarization assay. Type of data set: binding. The conditions noted are these: TEAD4 350 nM, YAP probe 25 nM; read-out: IC50, YAP-TEAD FP assay. As for the experimental part:
Human YAP (61–100), human TAZ (23–57) and mouse Vgll1 (26–51) peptide probes were used; all the probes had carboxyfluorescein labels. Human TEAD4 (217–434) was used in the assay at a concentration of 350 nM and the peptide probe concentration was 25 nM. Disruptors were titrated at concentrations ranging from 0–150 μM to the probe-TEAD complex, and the mixtures were incubated at 25°C for 20 min. Then, polarization measurements were taken using a Victor3 (PerkinElmer) plate reader.
Background: Polarisation of emitted light reports the rotation of a fluorescent probe.

The target of data set [5] is T4, YAP/TAZ-binding domain of human TEAD4 (217-434), deacylated (Homo sapiens, UniProt Q15561).
T4 construct: made in house
T4 sequence (Q15561 217-434): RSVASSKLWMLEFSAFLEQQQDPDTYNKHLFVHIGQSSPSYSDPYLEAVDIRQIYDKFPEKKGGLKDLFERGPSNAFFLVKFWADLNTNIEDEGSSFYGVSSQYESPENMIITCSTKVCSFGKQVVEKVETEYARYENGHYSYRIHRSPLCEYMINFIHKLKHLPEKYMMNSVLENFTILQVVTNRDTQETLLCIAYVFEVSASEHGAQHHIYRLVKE
Put plainly: Surface plasmon resonance. The conditions noted are these: one-site binding fit of steady-state response versus concentration; read-out: Kd, affinity between TEAD and ATA. The method, then: The YAP/TAZ-binding domain of human TEAD4 (217–434) was deacylated and resuspended in 10 mM acetate buffer pH 5.0. TEAD was immobilized on a CM5 sensor chip (Cytiva, product, BR100530) using the amine coupling kit (Cytiva, product, BR10050) as per manufacturer’s guidelines. Various concentrations of ATA were dissolved in buffer containing 20 mM Tris pH 8.0, 150 mM NaCl, 1.5% DMSO and passed over the reference cell and the cell containing immobilized TEAD, and the resonance responses were recorded.

In the next data set the test system is HEK293 cells. Put plainly: LDH cytotoxicity assay, HEK293. The conditions noted are these: HEK293, concentrations used. Type of data set: cell-based. The method, then:
as §1
NIH3T3 and HEK293 cells were treated with the indicated concentrations of ATA and the cytotoxicity was evaluated by calculating the amount of intracellular LDH released into the media. LDH absorbance after complete cell lysis is considered as 100% cytotoxicity and the absorbance after ATA treatment was normalized accordingly. (TIF) Click here for additional data file.

One may read the pIC50 as the IC50 on a negative log10 scale, so that one unit is a factor of ten. Usually pKd stands for −log10 of the Kd, conventionally taken in molar units.

T1 sequence (Q15561 whole entry, one chain of several): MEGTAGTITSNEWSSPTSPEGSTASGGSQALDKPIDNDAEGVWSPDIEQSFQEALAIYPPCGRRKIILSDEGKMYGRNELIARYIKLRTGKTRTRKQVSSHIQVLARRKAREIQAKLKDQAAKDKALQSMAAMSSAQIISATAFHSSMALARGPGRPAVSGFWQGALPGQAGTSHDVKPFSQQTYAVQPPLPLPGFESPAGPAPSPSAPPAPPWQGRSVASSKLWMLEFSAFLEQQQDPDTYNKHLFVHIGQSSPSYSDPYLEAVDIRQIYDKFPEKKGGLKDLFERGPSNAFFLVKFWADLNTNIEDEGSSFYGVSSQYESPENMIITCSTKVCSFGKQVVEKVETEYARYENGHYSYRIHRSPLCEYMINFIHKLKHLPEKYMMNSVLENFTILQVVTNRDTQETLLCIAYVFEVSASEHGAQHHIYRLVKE
T3 sequence (Q15561 217-434, one chain of several): as the sequence (Q15561 217-434) above

As for `O=C(O)C1=CC(=C(c2ccc(O)c(C(=O)O)c2)c2ccc(O)c(C(=O)O)c2)C=CC1=O` [ATA, aurintricarboxylic acid], the results for the pIC50 in data set [1] and in data set [4] were 7.46 and 3.80, respectively. Moreover, in data set [2], the “NRAS G12V-induced soft agar growth” value is reported as “unaffected”. Moreover, the “melting temperature (Tm) of TAZ + ATA” value on TAZ is 53.1 °C. Also, the “TC-dependent increase of TEAD luciferase reporter activity” value in data set [3] is on record as “significantly reduced”. Moreover, the pKd in data set [5] is 5.52. Further, the “cytotoxicity, LDH release” value with HEK293 cells is given as “did not show cytotoxicity”.
